# Assay results: patent US20250129021A1, “SMALL MOLECULE PROTEIN SYNTHESIS MODULATORS” (Interdict Bio, Inc., priority 2023, published 2025)
# Key:
# Format in all cases: biochemical
# [1] = test system: MYC; assay: In vitro transcription-translation (IVTT) assay, MYC reporter; conditions: IVTT assay, HeLa S3 lysate, MYC reporter, normalized sfGFP/mCherry ratio; half-log dilutions 30 μM-0.1 μM, 2 hrs at 30° C.
# Method in brief: (§1)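 Reporter: mCherry, P2A, then 3×FLAG-target peptide-sfGFP fusion, IRES-initiated; HeLa S3 lysate IVTT; cpd dilutions 30 μM−0.1 μM half-log in 100% DMSO (dilution-plate conc); DNA added last; 2 h, 30° C; PBS quench.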
# [2] = test system: CCND1; assay: In vitro transcription-translation (IVTT) assay, CCND1 reporter; conditions: IVTT assay, HeLa S3 lysate, sfGFP/mCherry ratio
# Method in brief: as §1
# [3] = test system: NFKB1; assay: In vitro transcription-translation (IVTT) assay, NFKB1 reporter; conditions: HeLa S3 lysate, sfGFP/mCherry ratio
# Description: (§2) In vitro transcription-translation assay setup: Each assay includes a master mix containing lysate and shared components, a 96-well plate containing compound titrations for testing, a 96-well DNA plate with reporter constructs to be tested, 96-well skirted PCR plates, and 96-well flat-bottom, black, fluorescent assay plates. Reaction materials setup: (A) Master mix—15 mL conical tube (3 mL of HeLa S3 Lysate described above; 0.6 mL of ThermoFisher Accessory Proteins (#88882); 1.2 ml of ThermoFisher Reaction Mix (#88882); 0.54 mL of nuclease-free Water); (B) 96-Well Master Mix+Compound Plate (Half-log dilutions (30 μM−0.1 μM) of 4 compounds of interest are prepared in 100% DMSO); 96-Well DNA Plate (Five DNA constructs are plated into single columns within the plate. Row 1 of the column contains nuclease free H2O, all other wells contain 110 ng/μL plasmid DNA). Reactions are started by mixing 155 μL of master mix and 3.5 μL of compound serial dilutions, then 9.1 μL of master mix+compound mixture is aliquoted across 5 96-well plates. Reactions begin with final addition of 2 μL of DNA for a 11.1 μL reaction volume in each well. The entire plate is sealed, and incubated for 2 hrs at 30° C. After 2 hrs, quench the assay using 45 μL of PBS, and transfer 50 μL to a flat-bottom black microplate Quantify the sfGFP and mCherry signals from each well on each plate, taking 3 reads of each plate, and perform data analysis below.
# (§3) In vitro transcription-translation assay data analysis: Each plate is read three times in channels for both sfGFP and mCherry signals. The average signal across these 3 reads is then calculated for further analysis. Control wells containing no DNA reporter are subtracted from reporter wells in the same column to remove auto-fluorescence of the lysate. Then, the ratio of sfGFP/mCherry is calculated per well, and these ratios are averaged across the triplicate experiments on the same plate. Finally, the ratio of each titration concentration is normalized to the no drug control to create the normalized stalling metric. The error on this measurement is determined by propagating error through the averaging and normalization steps. Values are plotted and fit for IC50 determination for each test sequence and titration of compound.
# [4] = test system: MCL-1; assay: In vitro transcription-translation (IVTT) assay, MCL-1 reporter; conditions: IVTT assay, HeLa S3 lysate, sfGFP/mCherry ratio; read-out: MCL1 IC50
# Method in brief: as §1
# [5] = test system: CCNTB1; assay: In vitro transcription-translation (IVTT) assay, CCNTB1 reporter; conditions: HeLa S3 lysate, sfGFP/mCherry ratio
# Description: as §2, §3
Compound,IC50 [2],IC50 [3],IC50 [4],IC50 [5],IC50 [1]
"O=C(NCc1ccnc(N2CCC2)c1)O[C@@H]1[C@@H](O)CN[C@@H]1Cc1ccc(-c2ccc(C(F)(F)F)cc2)cc1 [V192071, (2R,3S,4S)-4-hydroxy-2-((4′-(trifluoromethyl)-[1,1′-biphenyl]-4-yl)methyl)pyrrolidin-3-yl ((2-(azetidin-1-yl)pyridin-4-yl)methyl)carbamate]",> 30 µM,,20 to 30 µM,20 to 30 µM,20 to 30 µM
"O=C(NCc1cccc(F)c1)O[C@@H]1[C@@H](O)CN[C@@H]1Cc1ccc(-c2ccc(C(F)(F)F)cc2)cc1 [V192083, (2R,3S,4S)-4-hydroxy-2-{[4′-(trifluoromethyl)-[1,1′-biphenyl]-4-yl]methyl}pyrrolidin-3-yl N-[(3-fluorophenyl)methyl]carbamate]",> 30 µM,,> 30 µM,> 30 µM,> 30 µM
"O=C(NCc1cccc(F)c1)O[C@@H]1[C@@H](O)CN[C@@H]1Cc1ccc(-c2nnc(C(F)(F)F)s2)cc1 [V192102, (2R,3S,4S)-4-hydroxy-2-({4-[5-(trifluoromethyl)-1,3,4-thiadiazol-2-yl]phenyl}methyl)pyrrolidin-3-yl N-[(3-fluorophenyl)methyl]carbamate]",> 30 µM,,> 30 µM,10 to 20 µM,10 to 20 µM
"O=C(NCc1cccc(F)c1)O[C@@H]1[C@@H](O)CN[C@@H]1Cc1ccc(-c2ccc3ncsc3c2)cc1 [V192103, (2R,3S,4S)-2-{[4-(1,3-benzothiazol-6-yl)phenyl]methyl}-4-hydroxypyrrolidin-3-yl N-[(3-fluorophenyl)methyl]carbamate]",10 to 20 µM,,< 10 µM,< 10 µM,< 10 µM
"O=C(NCc1cccc(F)c1)O[C@@H]1[C@@H](O)CN[C@@H]1Cc1ccc(-c2ccc(Cl)s2)cc1 [V192156, (2R,3S,4S)-2-{[4-(5-chlorothiophen-2-yl)phenyl]methyl}-4-hydroxypyrrolidin-3-yl N-[(3-fluorophenyl)methyl]carbamate]",> 30 µM,,> 30 µM,> 30 µM,> 30 µM
"O=C(NCC1CC1)O[C@@H]1[C@@H](O)CN[C@@H]1Cc1ccc(-c2cnco2)cc1 [V192262, (2R,3S,4S)-4-hydroxy-2-{[4-(1,3-oxazol-5-yl)phenyl]methyl}pyrrolidin-3-yl N-(cyclopropylmethyl)carbamate]",< 10 µM,,< 10 µM,< 10 µM,< 10 µM
"O=C(NCC(F)F)O[C@@H]1[C@@H](O)CN[C@@H]1Cc1ccc(-c2cnco2)cc1 [V192264, (2R,3S,4S)-4-hydroxy-2-(4-(oxazol-5-yl)benzyl)pyrrolidin-3-yl (2,2-difluoroethyl)carbamate]",< 10 µM,,< 10 µM,< 10 µM,< 10 µM
"O=C(NCc1cccc(F)c1)O[C@@H]1[C@@H](O)CN[C@@H]1Cc1ccc(C(F)F)cc1 [V192274, (2R,3S,4S)-2-{[4-(difluoromethyl)phenyl]methyl}-4-hydroxypyrrolidin-3-yl N-[(3-fluorophenyl)methyl]carbamate]",< 10 µM,< 10 µM,,,< 10 µM
"O=C(NCc1cccc(OC(F)(F)F)c1)O[C@@H]1[C@@H](O)CN[C@@H]1Cc1ccc(-c2cnco2)cc1 [V192276, (2R,3S,4S)-4-hydroxy-2-{[4-(1,3-oxazol-5-yl)phenyl]methyl}pyrrolidin-3-yl N-{[3-(trifluoromethoxy)phenyl]methyl}carbamate]",< 10 µM,< 10 µM,,,< 10 µM

# Now from value to compound, other results behind:
IC50 [2],IC50 [3],IC50 [4],IC50 [5],Compound,IC50 [1]
< 10 µM,< 10 µM,,,"O=C(NCc1cccc(F)c1)O[C@@H]1[C@@H](O)CN[C@@H]1Cc1ccc(OCF)cc1 [V190507, (2R,3S,4S)-2-(4-(fluoromethoxy)benzyl)-4-hydroxypyrrolidin-3-yl (3-fluorobenzyl)carbamate]",< 10 µM
< 10 µM,,< 10 µM,< 10 µM,"COc1ccc(C[C@H]2NC[C@H](O)[C@H]2OC(=O)NCc2ccnc(N3CCC3)n2)cc1 [V192073, (2R,3S,4S)-4-hydroxy-2-[(4-methoxyphenyl)methyl]pyrrolidin-3-yl N-{[2-(azetidin-1-yl)pyrimidin-4-yl]methyl}carbamate]",< 10 µM
< 10 µM,,< 10 µM,< 10 µM,"O=C(NCc1ccc2c(c1)CCNC2)O[C@@H]1[C@@H](O)CN[C@@H]1Cc1ccc(-c2cncs2)cc1 [V192109, (2R,3S,4S)-4-hydroxy-2-(4-(thiazol-5-yl)benzyl)pyrrolidin-3-yl ((1,2,3,4-tetrahydroisoquinolin-6-yl)methyl)carbamate]",< 10 µM
< 10 µM,< 10 µM,,,"O=C(NCc1cnsc1)O[C@@H]1[C@@H](O)CN[C@@H]1Cc1ccc(-c2cnco2)cc1 [V192110, (2R,3S,4S)-4-hydroxy-2-(4-(oxazol-5-yl)benzyl)pyrrolidin-3-yl (isothiazol-4-ylmethyl)carbamate]",< 10 µM
< 10 µM,,< 10 µM,< 10 µM,"O=C(NCCC1CCNCC1)O[C@@H]1[C@@H](O)CN[C@@H]1Cc1ccc(-c2cncs2)cc1 [V192112, (2R,3S,4S)-4-hydroxy-2-{[4-(1,3-thiazol-5-yl)phenyl]methyl}pyrrolidin-3-yl N-[2-(piperidin-4-yl)ethyl]carbamate]",< 10 µM
< 10 µM,,< 10 µM,< 10 µM,"O=C(NCC[C@@H]1CCCN1)O[C@@H]1[C@@H](O)CN[C@@H]1Cc1ccc(-c2cncs2)cc1 [V192113, (2R,3S,4S)-4-hydroxy-2-{[4-(1,3-thiazol-5-yl)phenyl]methyl}pyrrolidin-3-yl N-{2-[(2S)-pyrrolidin-2-yl]ethyl}carbamate]",< 10 µM
< 10 µM,< 10 µM,,,"O=C(NCc1cccc(F)c1)O[C@@H]1[C@@H](O)CN[C@@H]1Cc1ccc(-c2cn3ccnc3s2)cc1 [V192127, (2R,3S,4S)-4-hydroxy-2-[(4-{imidazo[2,1-b][1,3]thiazol-2-yl}phenyl)methyl]pyrrolidin-3-yl N-[(3-fluorophenyl)methyl]carbamate]",< 10 µM
< 10 µM,,< 10 µM,< 10 µM,O=C(NCc1cccc(F)c1)O[C@@H]1[C@@H](O)CN[C@@H]1Cc1ccc(-c2cn3ccccc3n2)cc1 [V192139],< 10 µM
< 10 µM,,< 10 µM,< 10 µM,"O=C(NCc1cccc(-n2ccnc2)c1)O[C@@H]1[C@@H](O)CN[C@@H]1Cc1ccc(-c2cnco2)cc1 [V192167, (2R,3S,4S)-4-hydroxy-2-{[4-(1,3-oxazol-5-yl)phenyl]methyl}pyrrolidin-3-yl N-{[3-(imidazol-1-yl)phenyl]methyl}carbamate]",< 10 µM
< 10 µM,< 10 µM,,,"O=C(NCC[C@@H]1CCNCC1(F)F)O[C@@H]1[C@@H](O)CN[C@@H]1Cc1ccc(-c2cnco2)cc1 [V192234, (2R,3S,4S)-4-hydroxy-2-{[4-(1,3-oxazol-5-yl)phenyl]methyl}pyrrolidin-3-yl N-{2-[(4S)-3,3-difluoropiperidin-4-yl]ethyl}carbamate]",< 10 µM
< 10 µM,< 10 µM,,,"O=C(NCCC1CCNCC1)O[C@@H]1[C@@H](O)CN[C@@H]1Cc1ccc(-c2ccc(Cl)s2)cc1 [V192261, (2R,3S,4S)-2-{[4-(5-chlorothiophen-2-yl)phenyl]methyl}-4-hydroxypyrrolidin-3-yl N-[2-(piperidin-4-yl)ethyl]carbamate]",< 10 µM
